What was measured:
[1] = Granularity test; type: physicochemical
Text: (§1) The amorphous form of the compound represented by Formula I prepared in Preparation Example, the crystal form A of the compound represented by Formula I prepared in Example 1, the crystal form B of the compound represented by Formula I prepared in Example 9, the crystal form C of the compound represented by Formula I prepared in Example 12, the crystal form D of the compound represented by Formula I prepared in Example 17, and the crystal form E of the compound represented by Formula I prepared in Example 20 were measured for granularity, and the specific results are shown in Table 7 below: […]

[2] = Fluidity test (angle of repose); type: physicochemical; conditions: for fluidity compared to the amorphous form: conclusion from Table 8
Text: as §1, with “for angle of repose,” for “for granularity,”, “Table 8” for “Table 7”

[3] = Hygroscopicity test; type: physicochemical; conditions: for hygroscopicity: 75% RH and 25° C. for 24 h; for hygroscopicity compared to the amorphous form: conclusion from Table 9
Text: The amorphous form of the compound represented by Formula I prepared in Preparation Example, the crystal form A of the compound represented by Formula I prepared in Example 1, the crystal form B of the compound represented by Formula I prepared in Example 9, the crystal form C of the compound represented by Formula I prepared in Example 12, the crystal form D of the compound represented by Formula I prepared in Example 17, and the crystal form E of the compound represented by Formula I prepared in Example 20 were placed in an environment of 75% RH and 25° C. for 24 h and then each was weighed to calculate the hygroscopicity.

[4] = Stability test (purity and XRPD pattern after 30 days storage); type: physicochemical; conditions: for stability compared to the amorphous form: conclusion from Table 6
Description: X-ray powder diffraction instrument and test conditions involved in the present disclosure: the model of the X-ray diffraction instrument was Rigaku MiniFlex-600 Cu target; the operation method included a scanning speed of 10°/min and scanning step width of 0.01°.
High-performance liquid chromatography (HPLC) test conditions involved in the present disclosure: the model of the liquid chromatograph was Agilent 1260; the chromatographic column was Welch XB C-18 250 mm*4.6 mm 3 μm; the detection wavelength was 260 nm; and the column temperature was 40° C.
The amorphous form of compound represented by Formula I prepared in the described preparation examples, the crystal form A of the compound represented by Formula I prepared in Example 1, the crystal form B of the compound represented by Formula I prepared in Example 9, the crystal form C of the compound represented by Formula I prepared in Example 12, the crystal form D of the compound represented by Formula I prepared in Example 17, and the crystal form E of the compound represented by Formula I prepared in Example 20 were placed under various conditions: 75% RH, 92.5% RH, 40° C., 60° C., and illumination for 30 days, the X-ray powder diffraction pattern and purity of each crystal form were determined, and the specific results are shown in Table 6.

[5] = biological target: RET kinase (Homo sapiens, UniProt P07949); conditions: stated for WO2020/207419A1; cited from earlier work
RET kinase, sequence (P07949 29-1114): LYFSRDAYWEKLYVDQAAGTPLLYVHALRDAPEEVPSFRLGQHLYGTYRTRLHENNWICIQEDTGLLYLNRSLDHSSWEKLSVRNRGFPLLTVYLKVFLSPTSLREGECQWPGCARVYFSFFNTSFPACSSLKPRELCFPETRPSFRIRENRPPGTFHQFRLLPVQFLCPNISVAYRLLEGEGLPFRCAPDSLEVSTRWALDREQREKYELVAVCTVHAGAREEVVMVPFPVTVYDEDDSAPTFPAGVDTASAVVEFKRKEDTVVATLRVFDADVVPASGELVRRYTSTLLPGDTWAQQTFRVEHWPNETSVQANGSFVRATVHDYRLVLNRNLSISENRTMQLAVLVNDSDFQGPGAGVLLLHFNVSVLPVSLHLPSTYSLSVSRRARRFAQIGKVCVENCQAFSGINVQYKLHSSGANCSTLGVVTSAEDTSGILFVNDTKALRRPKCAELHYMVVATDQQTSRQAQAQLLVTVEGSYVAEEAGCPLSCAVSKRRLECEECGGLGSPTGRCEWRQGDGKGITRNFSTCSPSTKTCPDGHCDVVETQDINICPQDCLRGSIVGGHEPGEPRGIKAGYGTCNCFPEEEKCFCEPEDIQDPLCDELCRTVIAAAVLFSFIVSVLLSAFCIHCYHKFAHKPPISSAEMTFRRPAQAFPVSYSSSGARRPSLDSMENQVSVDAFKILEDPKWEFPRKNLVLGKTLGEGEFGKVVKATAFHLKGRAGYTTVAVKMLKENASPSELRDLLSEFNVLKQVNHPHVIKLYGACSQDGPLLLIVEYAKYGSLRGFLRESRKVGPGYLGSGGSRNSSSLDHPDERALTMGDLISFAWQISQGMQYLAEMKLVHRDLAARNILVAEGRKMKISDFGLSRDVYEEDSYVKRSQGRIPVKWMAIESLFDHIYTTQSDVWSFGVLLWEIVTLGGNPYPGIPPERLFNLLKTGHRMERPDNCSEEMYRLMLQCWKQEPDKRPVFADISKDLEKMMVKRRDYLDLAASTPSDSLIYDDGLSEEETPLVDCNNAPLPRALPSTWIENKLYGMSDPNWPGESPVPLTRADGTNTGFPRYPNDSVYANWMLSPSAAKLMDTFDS

Row | Compound | D50 (granularity) [1] | D90 (granularity) [1] | fluidity compared to the amorphous form [2] | angle of repose ([2]; measurement 1) | angle of repose ([2]; measurement 2) | angle of repose ([2]; measurement 3) | hygroscopicity [3] | hygroscopicity compared to the amorphous form [3] | stability compared to the amorphous form [4] | purity ([4]; day 0) | purity ([4]; day 30 at 40° C.) | purity ([4]; day 30 at 60° C.) | purity ([4]; day 30 under 75% RH) | purity ([4]; day 30 under 92.5% RH) | purity ([4]; day 30 under illumination) | also measured
1 | Cc1cc(Nc2cc(C)[nH]n2)nc(N2CC3CCC(C2)N3C(=O)c2ccc(-n3cc(F)cn3)nn2)n1 [crystal form B, (6-(4-fluoro-1H-pyrazol-1-yl)pyridazin-3-yl)(3-(4-methyl-6-((5-methyl-1H-pyrazol-3-yl)amino)pyrimidin-2-yl)-3,8-diazabicyclo[3.2.1]octan-8-yl) methanone] | 32.53 μm | 86.77 μm | significantly superior | 33.4° | 34.1° | 34.2° | 0.05% | significantly better | better stability | 99.80 | 99.68 | 99.62 | 99.52 | 99.23 | 98.56 | 
2 | Cc1cc(Nc2cc(C)[nH]n2)nc(N2CC3CCC(C2)N3C(=O)c2ccc(-n3cc(F)cn3)nn2)n1 [crystal form C, (6-(4-fluoro-1H-pyrazol-1-yl)pyridazin-3-yl)(3-(4-methyl-6-((5-methyl-1H-pyrazol-3-yl)amino)pyrimidin-2-yl)-3,8-diazabicyclo[3.2.1]octan-8-yl) methanone] | 31.58 μm | 79.47 μm | significantly superior | 33.8° | 33.9° | 33.2.° | 0.06% | significantly better | better stability | 99.75 | 99.51 | 99.38 | 99.45 | 99.08 | 98.22 | 
3 | Cc1cc(Nc2cc(C)[nH]n2)nc(N2CC3CCC(C2)N3C(=O)c2ccc(-n3cc(F)cn3)nn2)n1 [crystal form E, (6-(4-fluoro-1H-pyrazol-1-yl)pyridazin-3-yl)(3-(4-methyl-6-((5-methyl-1H-pyrazol-3-yl)amino)pyrimidin-2-yl)-3,8-diazabicyclo[3.2.1]octan-8-yl) methanone] | 30.36 μm | 75.89 μm | significantly superior | 34.2° | 35.1° | 34.8° | 0.05% | significantly better | better stability | 99.76 | 99.70 | 99.65 | 99.60 | 99.50 | 98.65 | 
4 | Cc1cc(Nc2cc(C)[nH]n2)nc(N2CC3CCC(C2)N3C(=O)c2ccc(-n3cc(F)cn3)nn2)n1 [crystal form A, (6-(4-fluoro-1H-pyrazol-1-yl)pyridazin-3-yl)(3-(4-methyl-6-((5-methyl-1H-pyrazol-3-yl)amino)pyrimidin-2-yl)-3,8-diazabicyclo[3.2.1]octan-8-yl) methanone] | 38.62 μm | 95.11 μm | significantly superior | 32.5° | 31.9° | 32.2° | 0.02% | significantly better | better stability | 99.85 | 99.80 | 99.77 | 99.67 | 99.48 | 98.88 | 
5 | Cc1cc(Nc2cc(C)[nH]n2)nc(N2CC3CCC(C2)N3C(=O)c2ccc(-n3cc(F)cn3)nn2)n1 [compound represented by formula I, (6-(4-fluoro-1H-pyrazol-1-yl)pyridazin-3-yl)(3-(4-methyl-6-((5-methyl-1H-pyrazol-3-yl)amino)pyrimidin-2-yl)-3,8-diazabicyclo[3.2.1]octan-8-yl) methanone] |  |  |  |  |  |  |  |  |  |  |  |  |  |  |  | effect of inhibiting RET kinase [5]: good effect of inhibiting RET kinase
6 | Cc1cc(Nc2cc(C)[nH]n2)nc(N2CC3CCC(C2)N3C(=O)c2ccc(-n3cc(F)cn3)nn2)n1 [crystal form D, (6-(4-fluoro-1H-pyrazol-1-yl)pyridazin-3-yl)(3-(4-methyl-6-((5-methyl-1H-pyrazol-3-yl)amino)pyrimidin-2-yl)-3,8-diazabicyclo[3.2.1]octan-8-yl) methanone] | 33.64 μm | 83.56 μm | significantly superior | 33.0° | 33.8° | 33.3° | 0.08% | significantly better | better stability | 99.60 | 99.42 | 99.33 | 99.35 | 99.01 | 98.23 | 
7 | Cc1cc(Nc2cc(C)[nH]n2)nc(N2CC3CCC(C2)N3C(=O)c2ccc(-n3cc(F)cn3)nn2)n1 [amorphous form, (6-(4-fluoro-1H-pyrazol-1-yl)pyridazin-3-yl)(3-(4-methyl-6-((5-methyl-1H-pyrazol-3-yl)amino)pyrimidin-2-yl) 3,8-diazabicyclo[3.2.1]octane-8-yl) methanone, reference compound] | 3.52 μm | 18.45 μm |  | 43.8° | 44.3° | 43.4° | 0.45% |  |  | 96.77 | 96.17 (its | 95.98 (its | 95.94 | 95.23 | 94.37 | granularity compared to crystal forms A, B, C, D and E ([1]; conclusion from Table 7): significantly smaller; D50 of amorphous form relative to the crystal form D50 ([1]; versus crystal forms A-E): not more than 12%; D90 of amorphous form relative to the crystal form D90 ([1]; versus crystal forms A-E): not more than 25%; X-ray powder diffraction pattern after storage ([4]; day 30 at 40° C.): changes); X-ray powder diffraction pattern after storage ([4]; day 30 at 60° C.): changes)

Reference: patent US20260258020A1, “CRYSTAL FORM OF PIPERAZINE AMIDE DERIVATIVE, PREPARATION METHOD THEREFOR AND USE THEREOF” (ZHEJIANG HISUN PHARMACEUTICAL CO., LTD., priority 2022, published 2026)
